The nature of this data set: Hygroscopicity of the Hydrochloride (weight gain at 75% relative humidity). The data set is classed as physicochemical. The settings on record: 43 days.

Consider `CN(CCOc1ccc(CC2SC(=O)NC2=O)cc1)c1ccccn1.Cl` (centres unmarked) [Hydrochloride, 5-[4-[2-(N-methyl-N-(2-pyridyl)amino)ethoxy]benzyl]thiazolidine-2,4-dione hydrochloride], for which the hygroscopicity classification result (75% relative humidity at 21° C.) is “non-hygroscopic (<2%)”. Under “75% relative humidity atmosphere at 21° C., constant weight attained, sample of Example 1”, this compound gave a percentage weight gain of 0.4%.

These data come from patent US7074811B2 (SmithKline Beecham p.l.c., priority 2000, dated 2006).
